Measured values reported in PubChem BioAssay AID248 (DTP/NCI, 2004).
Values joined by “and” are separate entries in the source; they are usually repeats but may differ in a detail not shown here. Equal entries are not always repeated. Inconclusive results and toxic doses are left out. No stated cut-off is given here; in the data, active means T/C of 150% or more; inactive means T/C below 125%.

System: L1210 leukemia ip in BDF1 mice, survival T/C
Test: NCI In Vivo Anticancer Drug Screen. Data for tumor model L1210 Leukemia (intraperitoneal) in B6D2F1 (BDF1) mice
Conditions: endpoint: mean survival time, higher = longer survival
In short: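 In this screen, tumor-bearing mice given compound are compared to those given vehicle, and their survival values are reported as a treated-to-control quotient.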

[1] = dose: 25.0 mg/kg/injection, schedule: Q01DX009 (ip), vehicle: Klucel (hydroxypropylcellulose) (HPC)
[2] = dose: 50.0 mg/kg/injection, schedule: Q01DX009 (ip), vehicle: Klucel (hydroxypropylcellulose) (HPC)
[3] = dose: 100.0 mg/kg/injection, schedule: Q01DX009 (ip), vehicle: Klucel (hydroxypropylcellulose) (HPC)
[4] = dose: 100.0 mg/kg/injection, schedule: Q04DX003 (ip), vehicle: Klucel (hydroxypropylcellulose) (HPC)
[5] = dose: 200.0 mg/kg/injection, schedule: Q04DX003 (ip), vehicle: Klucel (hydroxypropylcellulose) (HPC)
[6] = dose: 400.0 mg/kg/injection, schedule: Q04DX003 (ip), vehicle: Klucel (hydroxypropylcellulose) (HPC)
[7] = dose: 100.0 mg/kg/injection, schedule: Q04DX003 (ip), vehicle: saline with Tween-80
[8] = dose: 50.0 mg/kg/injection, schedule: Q04DX003 (ip), vehicle: saline
[9] = dose: 100.0 mg/kg/injection, schedule: Q01DX009 (ip), vehicle: saline
[10] = dose: 100.0 mg/kg/injection, schedule: Q04DX003 (ip), vehicle: saline
[11] = dose: 200.0 mg/kg/injection, schedule: Q01DX009 (ip), vehicle: saline
[12] = dose: 200.0 mg/kg/injection, schedule: Q04DX003 (ip), vehicle: saline
[13] = dose: 100.0 mg/kg/injection, schedule: Q01DX001 (ip), vehicle: carboxymethylcellulose (CMC)
[14] = dose: 200.0 mg/kg/injection, schedule: Q01DX001 (ip), vehicle: carboxymethylcellulose (CMC)
[15] = dose: 400.0 mg/kg/injection, schedule: Q01DX001 (ip), vehicle: carboxymethylcellulose (CMC)
[16] = dose: 100.0 mg/kg/injection, schedule: Q01DX001 (ip), vehicle: Klucel (hydroxypropylcellulose) (HPC)
[17] = dose: 200.0 mg/kg/injection, schedule: Q01DX001 (ip), vehicle: Klucel (hydroxypropylcellulose) (HPC)
[18] = dose: 400.0 mg/kg/injection, schedule: Q01DX001 (ip), vehicle: Klucel (hydroxypropylcellulose) (HPC)
[19] = dose: 100.0 mg/kg/injection, schedule: Q01DX001 (ip), vehicle: saline
[20] = dose: 200.0 mg/kg/injection, schedule: Q01DX001 (ip), vehicle: saline
[21] = dose: 400.0 mg/kg/injection, schedule: Q01DX001 (ip), vehicle: saline

Measured: T/C

Cc1cc(C(C)(C)C)c(O)c(C(C)(C)C)c1
inactive: [1] 110 % of control | [2] 103 % of control | [3] 113 % of control | [4] 103 % of control | [5] 114 % of control | [6] 95 % of control

CCOC(=O)NC(C)(C)CN(C(=O)OCC)C(C)C
inactive: [7] 97 % of control | dose: 200.0 mg/kg/injection, schedule: Q04DX003 (ip), vehicle: saline with Tween-80 101 % of control | dose: 400.0 mg/kg/injection, schedule: Q04DX003 (ip), vehicle: saline with Tween-80 117 % of control

COc1cc(C(=O)Nc2ccc(N(C)C)cc2)cc(OC)c1OC
inactive: dose: 25.0 mg/kg/injection, schedule: Q01DX009 (ip), vehicle: saline 103 % of control | dose: 25.0 mg/kg/injection, schedule: Q04DX003 (ip), vehicle: saline 108 % of control | dose: 50.0 mg/kg/injection, schedule: Q01DX009 (ip), vehicle: saline 108 % of control | [8] 97 % of control | [9] 97 % of control | [10] 100 % of control | [11] 104 % of control | [12] 103 % of control | dose: 400.0 mg/kg/injection, schedule: Q04DX003 (ip), vehicle: saline 100 % of control

O=C(Nc1ccc(C(=O)Nc2cc(S(=O)(=O)O)cc3cccc(S(=O)(=O)O)c23)cc1)Nc1ccc(C(=O)Nc2cc(S(=O)(=O)O)cc3cccc(S(=O)(=O)O)c23)cc1
inactive: dose: 37.5 mg/kg/injection, schedule: Q04DX003 (ip), vehicle: carboxymethylcellulose (CMC) 97 % of control | dose: 75.0 mg/kg/injection, schedule: Q01DX001 (ip), vehicle: carboxymethylcellulose (CMC) 93 % of control | dose: 75.0 mg/kg/injection, schedule: Q04DX003 (ip), vehicle: carboxymethylcellulose (CMC) 101 % of control | dose: 150.0 mg/kg/injection, schedule: Q01DX001 (ip), vehicle: carboxymethylcellulose (CMC) 105 % of control | dose: 150.0 mg/kg/injection, schedule: Q04DX003 (ip), vehicle: carboxymethylcellulose (CMC) 95 % of control

Clc1cccc(NCCc2ccccc2)c1
inactive: [4] 94 % of control | [5] 94 % of control | [6] 102 % of control

Clc1cnc(C(Cl)(Cl)Cl)c(Cl)n1 (tested in a mixture with another compound)
inactive: dose: 12.5 mg/kg/injection, schedule: Q01DX009 (ip), vehicle: Klucel (hydroxypropylcellulose) (HPC) 94 % of control | [1] 97 % of control | [2] 100 % of control

C=CC1CN2CCC1CC2C(OC(C)=O)c1ccnc2ccc(OC)cc12 (stereo not drawn)
inactive: dose: 50.0 mg/kg/injection, schedule: Q01DX001 (ip), vehicle: carboxymethylcellulose (CMC) 97 % of control | [13] 101 % of control | [14] 97 % of control | [15] 92 % of control

CC1(C)C2CCC1(C)C(/C=N/NC(N)=O)C2 (stereo not drawn)
inactive: [16] 94 % of control | [17] 102 % of control | [18] 105 % of control

O=C(c1ccccc1)C1C(c2ccccc2)N1C(=O)c1ccc([N+](=O)[O-])cc1 (stereo not drawn)
inactive: dose: 75.0 mg/kg/injection, schedule: Q01DX001 (ip), vehicle: saline with Tween-80 96 % of control | dose: 150.0 mg/kg/injection, schedule: Q01DX001 (ip), vehicle: saline with Tween-80 86 % of control | dose: 300.0 mg/kg/injection, schedule: Q01DX001 (ip), vehicle: saline with Tween-80 91 % of control

COc1ccc(OC(=O)Nc2ccc(Cl)cc2Cl)cc1
inactive: dose: 50.0 mg/kg/injection, schedule: Q01DX009 (ip), vehicle: saline with Tween-80 102 % of control | dose: 100.0 mg/kg/injection, schedule: Q01DX009 (ip), vehicle: saline with Tween-80 91 % of control | dose: 200.0 mg/kg/injection, schedule: Q01DX009 (ip), vehicle: saline with Tween-80 98 % of control

CCC(C)C(CN)(CCCCN1CCCC1)c1cccc2ccccc12 (stereo not drawn)
inactive: [7] 102 % of control

CN1CN(c2ccccc2)C2(CCN(Cc3cc(=O)c4ccccc4o3)CC2)C1=O
inactive: [4] 102 % of control | [5] 101 % of control | [6] 98 % of control

Nc1cccc(/C=C/C=C\c2cccc([N+](=O)[O-])c2)c1
inactive: [19] 97 % of control | [20] 94 % of control | [21] 92 % of control

CC1(C)OCC2OC3(C(=O)O)OC(C)(C)OC3C2O1 (stereo not drawn)
inactive: dose: 25.0 mg/kg/injection, schedule: Q01DX009 (ip), vehicle: water 105 % of control | dose: 50.0 mg/kg/injection, schedule: Q01DX009 (ip), vehicle: water 101 % of control | dose: 100.0 mg/kg/injection, schedule: Q01DX009 (ip), vehicle: water 96 % of control | dose: 200.0 mg/kg/injection, schedule: Q01DX009 (ip), vehicle: water 101 % of control | dose: 400.0 mg/kg/injection, schedule: Q01DX009 (ip), vehicle: water 95 % of control

CN1CCc2cc3c(cc2C(=O)Cc2ccc4c(c2C1)OCO4)OCO3
inactive: dose: 25.0 mg/kg/injection, schedule: Q04DX003 (ip), vehicle: saline with Tween-80 103 % of control | dose: 50.0 mg/kg/injection, schedule: Q04DX003 (ip), vehicle: saline with Tween-80 97 % of control | [13] 100 % of control | [7] 102 % of control

CN=C(NC)c1ccc(NC(=O)c2cc(OC)cc(C(=O)Nc3ccc(C(=NC)NC)cc3)c2)cc1
inactive: dose: 3.75 mg/kg/injection, schedule: Q01DX Z (ip), vehicle: saline 100 % of control | dose: 7.5 mg/kg/injection, schedule: Q01DX Z (ip), vehicle: saline 98 % of control | dose: 15.0 mg/kg/injection, schedule: Q01DX Z (ip), vehicle: saline 98 % of control

CCCCCCC(=O)N(CCCC)CCCC
inactive: [13] 109 % of control | dose: 100.0 mg/kg/injection, schedule: Q01DX009 (ip), vehicle: carboxymethylcellulose (CMC) 100 % of control and 91 % of control | dose: 100.0 mg/kg/injection, schedule: Q04DX003 (ip), vehicle: carboxymethylcellulose (CMC) 103 % of control | [14] 95 % of control | dose: 200.0 mg/kg/injection, schedule: Q01DX009 (ip), vehicle: carboxymethylcellulose (CMC) 96 % of control and 104 % of control | dose: 200.0 mg/kg/injection, schedule: Q04DX003 (ip), vehicle: carboxymethylcellulose (CMC) 94 % of control | [15] 98 % of control | dose: 400.0 mg/kg/injection, schedule: Q04DX003 (ip), vehicle: carboxymethylcellulose (CMC) 92 % of control

C1CNC(NC23CC4CC(CC(C4)C2)C3)=N1
inactive: [3] 98 % of control

COc1c2c(c(OC)c3ccccc13)C(=O)C1=C(CC=CC1)C2=O
inactive: dose: 50.0 mg/kg/injection, schedule: Q01DX005 (ip), vehicle: water 94 % of control | dose: 100.0 mg/kg/injection, schedule: Q01DX005 (ip), vehicle: water 87 % of control | dose: 200.0 mg/kg/injection, schedule: Q01DX005 (ip), vehicle: water 92 % of control

NC(=O)NOCC1NC(=O)NC1=O (stereo not drawn)
inactive: [9] 96 % of control | [11] 102 % of control | dose: 400.0 mg/kg/injection, schedule: Q01DX009 (ip), vehicle: saline 102 % of control

Cc1cc(C)c(C(=O)CC(=O)c2cccnc2)c(C)c1
inactive: dose: 25.0 mg/kg/injection, schedule: Q01DX001 (ip), vehicle: saline 102 % of control | dose: 50.0 mg/kg/injection, schedule: Q01DX001 (ip), vehicle: saline 101 % of control and 104 % of control | [8] 97 % of control | [19] 102 % of control and 103 % of control | [10] 97 % of control | [20] 97 % of control and 98 % of control | [12] 98 % of control | [21] 103 % of control

CCC1=C(C)C(=O)C2CCCCC2C1=O (stereo not drawn)
inactive: [16] 105 % of control | dose: 100.0 mg/kg/injection, schedule: Q01DX009 (ip), vehicle: saline sonified 95 % of control | [17] 111 % of control | dose: 200.0 mg/kg/injection, schedule: Q01DX009 (ip), vehicle: saline sonified 97 % of control | [18] 96 % of control | dose: 400.0 mg/kg/injection, schedule: Q01DX009 (ip), vehicle: saline sonified 92 % of control

CCCCCCCCCCCCCCCC(S(=O)(=O)CC)S(=O)(=O)CC
inactive: [4] 93 % of control | [5] 97 % of control | [6] 87 % of control
